Data published in patent US11858909B2, “Deuterated etoricoxib, methods of manufacture, and use thereof” (Tremeau Pharmaceuticals, Inc., priority 2021, dated 2024).
Where two headings read alike, the source gives them in different places.

Columns and labels:
[1] = Single dose crossover pharmacokinetic study in dogs; assay type: in vivo; settings: for AUC / Cmax: male, dog, plasma, po, single oral (gavage) dose, d3-etoricoxib 2.00 mg/kg, etoricoxib 1.98 mg/kg
Method: A single dose crossover study was conducted to compare the pharmacokinetics of d3-etoricoxib and non-isotopically enriched etoricoxib in dogs. Four male dogs were dosed, and animals received each of the following treatments sequentially, with a minimum of four days washout between doses.
Blood samples were taken at 0.083, 0.25, 0.5, 1, 2, 4, 6, 8, 12, and 24 hours post-dose. Plasma was analyzed for d3-etoricoxib or non-isotopically enriched etoricoxib concentration.

[2] = system: human liver microsomes; experiment: Metabolic stability with human liver microsomes (formation of M1 / d2-M1 metabolite); assay type: in vitro ADME; settings: human liver microsomes 0.5 mg/mL, 1 μM, over 60 minutes, NADPH and UDPGA
Method: The metabolic stability of non-isotopically enriched etoricoxib and d3-etoricoxib, with human liver microsomes was evaluated.
Etoricoxib is extensively metabolized in humans with <1% of a dose recovered in urine as the parent drug. The primary pathway for metabolism of etoricoxib in humans is through the production of the methylhydroxy metabolite of etoricoxib (“M1”). Metabolism of etoricoxib involves conversion primarily to the “M1” derivative, mainly (ca. 60%) by CYP3A4, with less contribution by CYPs 1A2, 2C9, 2C19 and 2D6 (ca. 40% collectively). See, e.g., Arcoxia® (etoricoxib) Australian Product Information, available at http://apps.medicines.org.au/files/mkparcox.pdf (last visited Apr. 9, 2021), the contents of which are herein incorporated by reference in their entirety. Production of the “M1” metabolite and d3-etoricoxib (“d2-M1”) was evaluated in this experiment throughout the incubation period.

[3] = target: T1, CYP3A4 (Homo sapiens, UniProt P08684); experiment: Metabolic stability in CYP3A4 incubations (formation of methylhydroxy metabolites); assay type: in vitro ADME; set-up: purchased Corning 456202; settings: for Formation of methylhydroxy metabolite relative to M1 formed from etoricoxib: human recombinant CYP3A4, over time (to 40 min), 1 μM; for Susceptibility to metabolism by CYP3A4 compared with non-isotopically enriched etoricoxib: human recombinant CYP3A4 incubations
T1 sequence (P08684 whole entry): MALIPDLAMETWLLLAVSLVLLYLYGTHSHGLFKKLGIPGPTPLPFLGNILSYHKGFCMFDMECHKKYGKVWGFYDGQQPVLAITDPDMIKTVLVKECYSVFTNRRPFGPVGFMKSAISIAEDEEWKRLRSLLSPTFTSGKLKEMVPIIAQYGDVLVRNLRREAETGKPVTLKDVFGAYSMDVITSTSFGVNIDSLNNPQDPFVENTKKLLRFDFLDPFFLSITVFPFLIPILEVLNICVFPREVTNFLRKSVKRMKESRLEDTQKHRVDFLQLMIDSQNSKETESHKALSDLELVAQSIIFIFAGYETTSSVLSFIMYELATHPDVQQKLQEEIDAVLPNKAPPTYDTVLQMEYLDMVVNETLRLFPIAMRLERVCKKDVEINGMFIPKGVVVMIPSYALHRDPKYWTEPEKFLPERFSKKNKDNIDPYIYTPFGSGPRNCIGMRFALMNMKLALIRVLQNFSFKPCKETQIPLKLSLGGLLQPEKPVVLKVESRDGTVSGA
Method: The metabolic stability of non-isotopically enriched etoricoxib, d3-etoricoxib, and an alternate deuterated form of etoricoxib, d4-etoricoxib (5-chloro-6′-methyl-3-(4-(methylsulfonyl)phenyl-2,3,5,6-d4)-2,3′-bipyridine, CAS No.: 1131345-14-6), in CYP3A4 incubations was evaluated. d4-Etoricoxib has the chemical structure:
Human recombinant CYP3A4 (Corning, item #456202, lot #9322001) was chosen for the assay conditions as CYP3A4 is the principle enzyme responsible for the metabolism of etoricoxib in humans. Formation of the methylhydroxy metabolites formed from etoricoxib, d3-etoricoxib, and d4-etoricoxib was monitored over time (Table 5, FIGS. 13 and 14).

[4] = humans; cited from earlier work
[5] = target: T1, CYP3A4; settings: humans; cited from earlier work
[6] = system: CYPs 1A2, 2C9, 2C19 and 2D6; settings: humans; cited from earlier work
[7] = equivalent oral doses, four male dogs
[8] = four male dogs, oral (gavage), 2.00 vs 1.98 mg/kg
[9] = Animal 1001, male dog, read-out: AUC0.5-24 h
[10] = Animal 1001, male dog, read-out: Cmax
[11] = Animal 1002, male dog, read-out: AUC0.5-24 h
[12] = Animal 1002, male dog, read-out: Cmax
[13] = Animal 1003, male dog, read-out: AUC0.5-24 h
[14] = Animal 1003, male dog, read-out: Cmax
[15] = Animal 1004, male dog, read-out: AUC0.5-24 h
[16] = Animal 1004, male dog, read-out: Cmax
[17] = Mean (SD) of four male dogs, read-out: AUC0.5-24 h, Mean (SD)
[18] = Mean (SD) of four male dogs, read-out: Cmax, Mean (SD)

AUC [1, 9] | Cmax [1, 10] | AUC [1, 11] | Cmax [1, 12] | AUC [1, 13] | Cmax [1, 14] | AUC [1, 15] | Cmax [1, 16] | AUC [1, 17] | Cmax [1, 18] | Formation of methylhydroxy metabolite relative to M1 formed from etoricoxib [3] | Susceptibility to metabolism by CYP3A4 compared with non-isotopically enriched etoricoxib [3] | Compound | also measured
516 ng·h/mL | 628 ng/mL | 1020 ng·h/mL | 791 ng/mL | 1260 ng·h/mL | 593 ng/mL | 658 ng·h/mL | 317 ng/mL | 865 ng·h/mL | 604 ng/mL | about six-fold lower | substantially different | [2H]C([2H])([2H])c1ccc(-c2ncc(Cl)cc2-c2ccc(S(C)(=O)=O)cc2)cn1 [d3-etoricoxib, 5-chloro-6′-(methyl-d3)-3-(4-(methylsulfonyl)phenyl)-2,3′-bipyridine] | Cmax relative to non-isotopically enriched etoricoxib [1, 7]: higher Cmax; Metabolism in dogs relative to non-isotopically enriched etoricoxib [1, 7]: substantially resistant to metabolism; Total exposure (AUC) relative to non-isotopically enriched etoricoxib [1, 7]: higher total exposure; AUC0.5-24 h, Average % delta d3-etoricoxib vs etoricoxib [1, 8]: +48.6%; Cmax, Average % delta d3-etoricoxib vs etoricoxib [1, 8]: +54.9%; Amount of d2-M1 metabolite formed relative to M1 formed from etoricoxib [2]: approximately three-fold less
– | – | – | – | – | – | – | – | – | – | similar | almost identical | [2H]c1c([2H])c(S(C)(=O)=O)c([2H])c([2H])c1-c1cc(Cl)cnc1-c1ccc(C)nc1 [d4-etoricoxib, 5-chloro-6′-methyl-3-(4-(methylsulfonyl)phenyl-2,3,5,6-d4)-2,3′-bipyridine, reference compound] | –
342 ng·h/mL | 259 ng/mL | 606 ng·h/mL | 426 ng/mL | 1130 ng·h/mL | 670 ng/mL | 336 ng·h/mL | 206 ng/mL | 582 ng·h/mL | 390 ng/mL | – | – | Cc1ccc(-c2ncc(Cl)cc2-c2ccc(S(C)(=O)=O)cc2)cn1 [etoricoxib] | Dose recovered in urine as the parent drug [4]: < 1%; Share of conversion to the M1 derivative by CYP3A4 [5]: ca. 60%; Share of conversion to the M1 derivative by CYPs 1A2, 2C9, 2C19 and 2D6 collectively [6]: ca. 40%
